As a reminder, the IC50 is the concentration needed to halve the response being measured. Read a low IC50 as higher potency.

Values after ≈ are worked out from the molar mass of the structure shown. Bounds are passed on as bounds.

Experiment [1] can be described thus: Cytotoxicity against human SW1116 cells assessed as cell viability rate at 10 ug/ml after 24 hrs by MTT assay. In kind it is functional, SW 1116. In general terms: Formazan colour is commonly taken as a measure of viable cells.
Experiment [2] in a line: Cytotoxicity against human SW1116 cells assessed as cell viability rate at 0.1 ug/ml after 24 hrs by MTT assay. In kind it is functional, SW 1116.
Experiment [3] can be described thus: Cytotoxicity against human SW1116 cells assessed as cell viability rate at 1 ug/ml after 24 hrs by MTT assay. Type of experiment: functional, SW 1116.
In another experiment the test system is SGC-7901. The experiment can be described thus: Cytotoxicity against human SGC7901 cells after 20 hrs by MTT assay. The following applies: SGC-7901, 20 h. In kind it is functional, cell-based.

For `COc1cc(C2C3=C(CC(C)(C)CC3=O)OC(=O)C2NC(=O)c2ccccc2)cc(OC)c1OC` (mixture of isomers), the results for the Cell viability in experiment [1], in experiment [2] and in experiment [3] were 92.18%, 91.48% and 81.59%, respectively. For the same compound, half-maximal inhibition in the experiment on SGC-7901 (IC50) required 0.158 µg/mL.
Turning to `O=C1CCCC2=C1C(c1ccccc1Cl)C(NC(=O)c1ccccc1)C(=O)O2` (mixture of isomers), the Cell viability in experiment [1] stood at 87.56%; in experiment [2] it was 109.5%; in experiment [3], 102.59%. The same compound registered an IC50 with SGC-7901 of 0.226 µg/mL.
In the case of `CC1(C)CC(=O)C2=C(C1)OC(=O)C(NC(=O)c1ccccc1)C2c1ccco1` (stereo not drawn), the Cell viability was 42.02% in experiment [1], 79.26% in experiment [2] and 67.67% in experiment [3]. The compound further came in with an IC50 in the experiment with SGC-7901 of 0.259 µg/mL (≈ 0.683 µM).
For `O=C1CCCC2=C1C(c1ccccc1Br)C(NC(=O)c1ccccc1)C(=O)O2` (mixture of isomers) the same measures were 99.27%, 50.51%, 92.19% and 3.94 µg/mL.
Turning to `CC1(C)CC(=O)C2=C(C1)OC(=O)C(NC(=O)c1ccccc1)C2c1cccs1` (mixture of isomers), the figures for the Cell viability in experiment [1], in experiment [2] and in experiment [3] were 50.51%, 94.51% and 104.31%, respectively. The same compound yielded an IC50 in the experiment with SGC-7901 of 0.612 µg/mL.
`CC1(C)CC(=O)C2=C(C1)OC(=O)C(NC(=O)c1ccccc1)C2c1ccccc1Cl` (mixture of isomers): the Cell viability in experiment [1] is recorded as 85.08%; in experiment [2] it was 114.23%; in experiment [3], 97.92%. In addition, in the experiment on SGC-7901, the IC50 worked out at 0.239 µg/mL.
Take `COc1cccc2c1C(=O)c1c(O)c3c(c(O)c1C2=O)C[C@@](O)(C(=O)CO)C[C@@H]3O[C@H]1C[C@H](N)[C@H](O)[C@H](C)O1.Cl` [DOXORUBICIN HYDROCHLORIDE]: in experiment [1], the Cell viability is reported as 67.34%.
Consider `COc1cc(C2C3=C(CCCC3=O)OC(=O)C2NC(=O)c2ccccc2)cc(OC)c1OC` (mixture of isomers), for which the Cell viability in experiment [1] worked out at 94.07%; in experiment [2], 110.34%; in experiment [3], 109.73%. The compound further displayed an IC50 in the experiment with SGC-7901 of 1.21 µg/mL.
The corresponding values for `Cc1ccc(C2C3=C(CCCC3=O)OC(=O)C2NC(=O)c2ccccc2)cc1` (mixture of isomers) are 107.87%, 113.97%, 106.66% and 1.86 µg/mL.
`CC1(C)CC(=O)C2=C(C1)OC(=O)C(NC(=O)c1ccccc1)C2c1ccccc1Br` (mixture of isomers): the Cell viability worked out at 55.74% in experiment [1], 102.11% in experiment [2] and 99.3% in experiment [3]. The compound also yielded an IC50 in the experiment with SGC-7901 of 5.13 µg/mL.
Consider `CC1(C)CC(=O)C2=C(C1)OC(=O)C(NC(=O)c1ccccc1)C2c1ccc(F)cc1` (mixture of isomers), for which the Cell viability was determined as 59.03% in experiment [1], 95.76% in experiment [2] and 91.39% in experiment [3]. The same compound came in with an IC50 in the experiment with SGC-7901 of 0.436 µg/mL.
For `O=C1CCCC2=C1C(c1ccc(F)cc1)C(NC(=O)c1ccccc1)C(=O)O2` (mixture of isomers), the Cell viability in experiment [1] amounted to 83.22%; in experiment [2], 90.86%; in experiment [3] it was 91.07%. Besides, in the experiment with SGC-7901, the IC50 is 0.812 µg/mL.
On to `O=C1CCCC2=C1C(c1ccco1)C(NC(=O)c1ccccc1)C(=O)O2` (mixture of isomers), for which the figures for the Cell viability in experiment [1], in experiment [2] and in experiment [3] were 74.22%, 95.53% and 97.92%, respectively. Further, the IC50 in the experiment on SGC-7901 is 1.3 µg/mL.
`CC1(C)CC(=O)C2=C(C1)OC(=O)C(NC(=O)c1ccccc1)C2c1ccc([N+](=O)[O-])cc1` (mixture of isomers): the figures for the Cell viability in experiment [1], in experiment [2] and in experiment [3] were 46.6%, 107.38% and 73.4%, respectively. In the experiment on SGC-7901, this compound yielded an IC50 of 0.905 µg/mL.
Take `O=C1CCCC2=C1C(c1ccc(Cl)cc1)C(NC(=O)c1ccccc1)C(=O)O2` (mixture of isomers): the Cell viability in experiment [1] was 69.78%; in experiment [2], 91.48%; in experiment [3] it was 89.77%. Besides, the IC50 in the experiment with SGC-7901 was more than 100 µg/mL.
Regarding `O=C1CCCC2=C1C(c1ccc([N+](=O)[O-])cc1)C(NC(=O)c1ccccc1)C(=O)O2` (mixture of isomers), the figures for the Cell viability in experiment [1], in experiment [2] and in experiment [3] were 55.22%, 73.6% and 100.6%, respectively. Further, the IC50 with SGC-7901 came to 1.09 µg/mL.
For `CC1(C)CC(=O)C2=C(C1)OC(=O)C(NC(=O)c1ccccc1)C2c1ccc(Cl)cc1` (mixture of isomers), the Cell viability in experiment [1] is recorded as 64.34%; in experiment [2] it was 77.19%; in experiment [3], 77.81%. The same compound yielded a half-maximal inhibitory concentration (IC50) with SGC-7901 of more than 100 µg/mL.
For `Cc1ccc(C2C3=C(CC(C)(C)CC3=O)OC(=O)C2NC(=O)c2ccccc2)cc1` (mixture of isomers) the same measures were 82.67%, 77.88%, 83.63% and 2.69 µg/mL.
For `O=C1CCCC2=C1C(c1cccs1)C(NC(=O)c1ccccc1)C(=O)O2` (mixture of isomers), the Cell viability in experiment [1] is given as 69.73%; in experiment [2] it was 79.97%; in experiment [3] it was 81.65%. This compound showed a concentration for half-maximal inhibition (IC50) in the experiment on SGC-7901 of 0.701 µg/mL.

Source of the values: ChEMBL document CHEMBL1687866, “Efficient microwave-assisted synthesis of novel 3-aminohexahydrocoumarin derivatives and evaluation on their cytotoxicity” (Eur J Med Chem, 2011).
